Holding throughout (assay): DTP human tumour cell line panel, 48 h
For assay [1], the system named is SW-620.
Assay [2] deals with UACC-257.
Assay [3] deals with SR.
Assay [4] relates to RXF 393.
In assay [5] the test system is HCT-15.
Assay [6] relates to A549.
Assay [7] relates to OVCAR-8.
Assay [8] concerns NCI-H23.
Assay [9] deals with OVCAR-4.
The test system of assay [10] is ACHN.
The subject of assay [11] is SK-MEL-2.
The subject of assay [12] is KM12.
The subject of assay [13] is CCRF-CEM.
Assay [14] concerns U-251.
The subject of assay [15] is NCI/ADR-RES.
The subject of assay [16] is NCI-H522.
The subject of assay [17] is LOX IMVI.
In assay [18] the test system is HOP-62.
The test system of assay [19] is COLO 205.
Assay [20] has as its system RPMI-8226.

What is called GI50 is the concentration giving 50% growth inhibition.

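Five concentrations, 48 hours, 96-well plates. GI50 = concentration required for 50% inhibition of growth.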 The source made the active and inactive calls. Cut-off read from the data, not from the text of the source: active = GI50 up to about 1.1 µM and inactive = higher.

Consider `Oc1ccc(-c2ccccc2)nn1`, for which the GI50 in assay [1] is > 100 µM (inactive); in [2], > 100 µM (inactive); in assay [3] it was > 100 µM (inactive); in assay [4], > 100 µM (inactive); in assay [5] it was more than 100 µM; in assay [6], > 100 µM (inactive). In addition, the GI50 in [7], in assay [8], in assay [9], in assay [10], in [11] and in [12] was > 100 µM (inactive) throughout. In addition, the GI50 in [13], in assay [14], in assay [15], in assay [16], in [17] and in assay [18] was > 100 µM (inactive) in each case.
Turning to `C=CCC1(Sc2ccccn2)Sc2ccc3ccccc3c2-c2c(ccc3ccccc23)S1`, the GI50 was > 100 µM (inactive) in [1]; > 100 µM (inactive) in assay [2]; > 100 µM (inactive) in assay [3]; > 100 µM (inactive) in assay [4]; more than 100 µM in [5]; > 100 µM (inactive) in assay [6]. For the same compound, the GI50 in assay [7], in assay [8], in assay [9], in assay [10], in [11] and in assay [19] was > 100 µM (inactive) each time. The GI50 in assay [12], in assay [13], in [14], in assay [15], in [16] and in assay [17] was > 100 µM (inactive) in each case. In assay [18], the GI50 was > 100 µM (inactive).
As for `CCOC(=O)C1=C(C(=O)c2ccc(C)cc2)C(c2cccc([N+](=O)[O-])c2)C(C(=O)c2ccc(C)cc2)=C(C(=O)OCC)N1`, the GI50 was 14.1 µM (inactive) in [1]; 21.4 µM (inactive) in assay [2]; 2.93 µM (inactive) in [3]; 21 µM (inactive) in assay [4]; 0.853 µM in [5]; 24.2 µM (inactive) in [6]. Moreover, the GI50 was 22.5 µM (inactive) in assay [7]; 15.8 µM (inactive) in assay [8]; 25.4 µM (inactive) in assay [9]; 15.1 µM (inactive) in assay [10]; 26.1 µM (inactive) in [11]; 1.95 µM (inactive) in assay [19]. For the same compound, the GI50 in assay [12] was 12.8 µM (inactive); in assay [13] it was 5.69 µM (inactive); in [14], 13.1 µM (inactive); in [15] it was 18.2 µM (inactive); in [16] it was 15.6 µM (inactive); in assay [17], 17.6 µM (inactive). For the same compound, in assay [18], the GI50 is 19.5 µM (inactive).
For `O=C(NCCCNCCNC(=O)c1cc(-c2ccccc2)nc2ccccc12)c1cc(-c2ccccc2)nc2ccccc12`, the GI50 in assay [1] is 1.65 µM (inactive); in assay [2], 1.67 µM (inactive); in assay [3], 2.75 µM (inactive); in assay [4] it was 2 µM (inactive); in assay [5] it was 1.52 µM; in assay [20], 3.25 µM (inactive). The GI50 in assay [6] is 1.73 µM (inactive); in [7], 1.77 µM (inactive); in assay [9] it was 2.13 µM (inactive); in assay [10], 1.79 µM (inactive); in assay [11], 2.24 µM (inactive); in [19], 1.72 µM (inactive). For the same compound, the GI50 is 1.91 µM (inactive) in assay [12]; 0.783 µM (active) in [13]; 1.85 µM (inactive) in [14]; 2.05 µM (inactive) in [15]; 1.75 µM (inactive) in assay [16]; 1.58 µM (inactive) in assay [17]. Besides, the GI50 in assay [18] is 1.69 µM (inactive).
For `CCc1nc(N)nc(N)c1-c1ccc2nnn(O)c2c1`, the GI50 in assay [1] was > 100 µM (inactive); in [2] it was > 100 µM (inactive); in [3], > 100 µM (inactive); in assay [4], > 100 µM (inactive); in assay [5], more than 100 µM; in assay [20] it was > 100 µM (inactive). Further, the GI50 in [6] was > 73.6 µM (inactive); in assay [7], > 100 µM (inactive); in assay [8], > 100 µM (inactive); in [9], > 100 µM (inactive); in [10], > 100 µM (inactive); in [11] it was > 100 µM (inactive). The GI50 in [19], in [12], in assay [13], in assay [14], in assay [15] and in assay [16] was > 100 µM (inactive) each time. Besides, the GI50 in assay [17] and in [18] was > 100 µM (inactive) each time.
Turning to `CN1CN(c2ccccc2)C2(CCN(CCc3csc4ccccc34)CC2)C1=O`, the GI50 is 16.9 µM (inactive) in assay [1]; 14.4 µM (inactive) in assay [2]; 11.7 µM (inactive) in assay [3]; 12.6 µM (inactive) in assay [4]; 10.7 µM in [5]; 6.84 µM (inactive) in [20]. For the same compound, the GI50 is 24.2 µM (inactive) in [6]; 21.4 µM (inactive) in assay [7]; 17.4 µM (inactive) in assay [8]; > 10 µM (inactive) in [10]; 14.3 µM (inactive) in [19]; 12.6 µM (inactive) in assay [12]. Also, the GI50 in assay [13] is 12.3 µM (inactive); in assay [14], 14.5 µM (inactive); in assay [15], 13.8 µM (inactive); in assay [16] it was 15.9 µM (inactive); in assay [17], 13.7 µM (inactive); in [18], 12.2 µM (inactive).
With `COc1ccc(/N=N/c2c(C)c(C#N)c(=S)n(C3OC(COC(C)=O)C(OC(C)=O)C(OC(C)=O)C3OC(C)=O)c2-c2ccccc2)cc1` (configuration not stated), the GI50 is 2.92 µM (inactive) in assay [1]; 22.4 µM (inactive) in assay [2]; 4.07 µM (inactive) in assay [3]; 11.5 µM (inactive) in assay [4]; 14.9 µM in assay [5]; 5.65 µM (inactive) in assay [20]. The GI50 is 8.18 µM (inactive) in [6]; 15.6 µM (inactive) in [8]; 3.15 µM (inactive) in [9]; 46.9 µM (inactive) in assay [10]; 8.04 µM (inactive) in [11]; 6.93 µM (inactive) in assay [19]. Further, the GI50 is 8.43 µM (inactive) in assay [12]; 4.94 µM (inactive) in assay [13]; 10.7 µM (inactive) in assay [14]; 3.39 µM (inactive) in assay [15]; 5.42 µM (inactive) in [17]; 11.6 µM (inactive) in [18].
For the compound `N#CC(c1ccccc1)N(CCc1ccccc1)C(=O)c1ccccc1` (configuration not stated), the GI50 in assay [1] was > 100 µM (inactive); in assay [2] it was > 100 µM (inactive); in [3] it was > 100 µM (inactive); in assay [4], > 52.1 µM (inactive); in assay [5], more than 100 µM; in assay [20], > 100 µM (inactive). Moreover, the GI50 in [6] was > 100 µM (inactive); in assay [7], 38.7 µM (inactive); in assay [8], 71.9 µM (inactive); in assay [9], 51.2 µM (inactive); in assay [10] it was > 91.8 µM (inactive); in assay [11], > 64.7 µM (inactive). For the same compound, the GI50 is > 100 µM (inactive) in [19]; > 100 µM (inactive) in [12]; > 100 µM (inactive) in [13]; 52.4 µM (inactive) in [14]; 42.9 µM (inactive) in [15]; > 59.2 µM (inactive) in [16]. The GI50 in assay [17] is > 100 µM (inactive); in [18] it was 34 µM (inactive).
In the case of `CCCCC/C(C=O)=C\c1ccccc1`, the GI50 in [1] was > 100 µM (inactive); in [2] it was > 100 µM (inactive); in [3], > 100 µM (inactive); in assay [4], > 100 µM (inactive); in assay [5], more than 100 µM; in [20], > 100 µM (inactive). Further, the GI50 in [7], in assay [8], in assay [9], in assay [10], in assay [11] and in assay [19] was > 100 µM (inactive) throughout. The GI50 is > 100 µM (inactive) in assay [12]; 80.4 µM (inactive) in [13]; > 100 µM (inactive) in assay [14]; > 100 µM (inactive) in [15]; > 100 µM (inactive) in assay [17]; > 100 µM (inactive) in assay [18].
Regarding `CN1C(=O)c2ccc3ccccc3c2C1=O`, the GI50 was > 100 µM (inactive) in assay [1]; > 100 µM (inactive) in [2]; > 100 µM (inactive) in assay [3]; 30.8 µM (inactive) in assay [4]; more than 100 µM in [5]; > 100 µM (inactive) in [20]. The GI50 in [6], in assay [7], in assay [8], in [9], in assay [10] and in assay [11] was > 100 µM (inactive) each time. The GI50 in assay [19] was > 100 µM (inactive); in assay [12], > 100 µM (inactive); in [13], > 100 µM (inactive); in [14] it was > 100 µM (inactive); in assay [15], > 100 µM (inactive); in assay [16], 86.1 µM (inactive). Besides, the GI50 in assay [18] was > 100 µM (inactive).
Consider `O=C([O-])C(O)C(O)C(O)C(O)C(=O)O.[K+]` (configuration not stated), for which the GI50 is > 100 µM (inactive) in assay [1]; > 100 µM (inactive) in [2]; > 100 µM (inactive) in [3]; > 100 µM (inactive) in assay [4]; more than 100 µM in assay [5]; > 100 µM (inactive) in [6]. The GI50 in [7], in assay [8], in assay [9], in assay [10], in assay [11] and in assay [19] was > 100 µM (inactive) throughout. In addition, the GI50 in [12], in [13], in assay [14], in assay [15], in assay [16] and in assay [17] was > 100 µM (inactive) in each case. Also, the GI50 in assay [18] is > 100 µM (inactive).

Source of the values: ChEMBL document CHEMBL1201862, “PubChem BioAssay data set” (2004).
